Test system: Transplanted paddy rice plant
Test: Biological Test 1 (treatment on the 3rd day after transplantation): chemical injury to paddy rice
Format: in vivo
Parameters: scale not given here
Details: Treatment performed 3 days after transplantation
Protocol: (1) Preparation of Herbicide
Talc (57 parts by weight) and bentonite (40 parts by weight), both serving as carriers, and sodium alkylbenzenesulfate (3 parts by weight) serving as a surfactant were homogeneously ground and mixed to thereby obtain a carrier for water-dispersible powder.
Subsequently, to the water-dispersible powder (90 parts by weight), the triketone derivative (compound No. A-1) produced in Example I-1 (10 parts by weight) was added, and the resultant mixture was homogeneously ground and mixed to thereby obtain a herbicide.
(i) Biological Test 1 (Soaking in Water/Treatment on the 3rd Day After Transplantation)
A Wagner pot (1/2000 are) was filled with paddy soil, and seeds of barnyard grass were planted on the surface layer of the soil, and further, rice seedlings grown to the 2.5-leaf stage were transplanted.
Subsequently, water was poured in the pot to a height of 3 cm above the soil surface, and placed in a greenhouse where the temperature was maintained at 20-25° C., to thereby grow the plant under suitable conditions.
On the 3rd day after transplantation, the herbicide prepared in (1) above was applied to the plant in a predetermined amount. On the 30th day after treatment with the herbicide, weed-killing ratio, herbicidal effect, and extent of chemical injury to paddy rice were examined.
In Biological tests 1 and 2, herbicidal effect and extent of chemical injury were evaluated according to the below-described standards.
3) Chemical Injury to Paddy Rice
Chemical injury to paddy rice was evaluated according to the following criteria.

[1] = dose 100 g/ha, examined on the 30th day after treatment
[2] = dose 200 g/ha, examined on the 30th day after treatment

SMILES	Chemical injury, Transplanted paddy rice plant [1]	Chemical injury, Transplanted paddy rice plant [2]	Chemical injury, Transplanted paddy rice plant (dose 100 g/ha)	Chemical injury, Transplanted paddy rice plant (dose 200 g/ha)
O=C1CCCC(O)=C1C(=O)c1ccc2c(c1Cl)CCS2(=O)=O [A-1, 4-chloro-5-(1,3-dioxocyclohexan-2-yl)carbonyl-2,3-dihydrobenzothiophene-1,1-dioxide]	0	0	–	–
Cc1c(C(=O)C2=C(O)CCCC2=O)ccc2c1CCS2(=O)=O [A-2, 4-methyl-5-(1,3-dioxocyclohexan-2-yl)carbonyl-2,3-dihydrobenzothiophene-1,1-dioxide]	0	0	–	–
Cc1cc(C(=O)C2=C(O)CCCC2=O)c(Cl)c2c1S(=O)(=O)CC2 [A-3, 4-chloro-7-methyl-5-(1,3-dioxocyclohexan-2-yl) carbonyl-2,3-dihydrobenzothiophene-1,1-dioxide]	1	3	–	–
Cc1cc(C(=O)C2=C(O)CCCC2=O)c(C)c2c1S(=O)(=O)CC2 [A-4, 4,7-dimethyl-5-(1,3-dioxocyclohexan-2-yl)carbonyl-2,3-dihydrobenzothiophene-1,1-dioxide]	0	1	–	–
COc1c(C(=O)C2=C(O)CCCC2=O)ccc2c1CCS2(=O)=O [A-5, 4-methoxy-5-(1,3-dioxocyclohexan-2-yl)carbonyl-2,3-dihydrobenzothiophene-1,1-dioxide]	0	0	–	–
CSc1c(C(=O)C2=C(O)CCCC2=O)ccc2c1CCS2(=O)=O [A-6, 4-methylthio-5-(1,3-dioxocyclohexan-2-yl)carbonyl-2,3-dihydrobenzothiophene-1,1-dioxide]	1	3	–	–
CC1CCC(O)=C(C(=O)c2ccc3c(c2Cl)CCS3(=O)=O)C1=O (centres unmarked) [A-7, 4-chloro-5-(4-methyl-1,3-dioxocyclohexan-2-yl)carbonyl-2,3-dihydrobenzothiophene-1,1-dioxide]	1	2	–	–
CC1(C)CCC(O)=C(C(=O)c2ccc3c(c2Cl)CCS3(=O)=O)C1=O [A-8, 4-chloro-5-(4,4-dimethyl-1,3-dioxocyclohexan-2-yl)carbonyl-2,3-dihydrobenzothiophene-1,1-dioxide]	1	3	–	–
CC1(C)CC(=O)C(C(=O)c2ccc3c(c2Cl)CCS3(=O)=O)=C(O)C1 [A-9, 4-chloro-5-(5,5-dimethyl-1,3-dioxocyclohexan-2-yl)carbonyl-2,3-dihydrobenzothiophene-1,1-dioxide]	1	3	–	–
Cc1cc(C(=O)C2=C(O)CC(C)(C)CC2=O)c(Cl)c2c1S(=O)(=O)CC2 [A-10, 4-chloro-7-methyl-5-(5,5-dimethyl-1,3-dioxocyclohexan-2-yl)carbonyl-2,3-dihydrobenzothiophene-1,1-dioxide]	1	3	–	–
Cc1cc(C(=O)C2=C(O)CCC(C)(C)C2=O)c(Cl)c2c1S(=O)(=O)CC2 [A-11, 4-chloro-7-methyl-5-(4,4-dimethyl-1,3-dioxocyclohexan-2-yl)carbonyl-2,3-dihydrobenzothiophene-1,1-dioxide]	1	3	–	–
CC1CC(=O)C(C(=O)c2ccc3c(c2Cl)CCS3(=O)=O)=C(O)C1 (centres unmarked) [A-12, 4-chloro-5-(5-methyl-1,3-dioxocyclohexan-2-yl)carbonyl-2,3-dihydrobenzothiophene-1,1-dioxide]	1	2	–	–
CC1CC(C)(C)C(=O)C(C(=O)c2ccc3c(c2Cl)CCS3(=O)=O)=C1O (centres unmarked) [A-13, 4-chloro-5-(4,4,6-trimethyl-1,3-dioxocyclohexan-2-yl)carbonyl-2,3-dihydrobenzothiophene-1,1-dioxide]	1	3	–	–
CC1CC(C)C(O)=C(C(=O)c2ccc3c(c2Cl)CCS3(=O)=O)C1=O (centres unmarked) [A-14, 4-chloro-5-(4,6-dimethyl-1,3-dioxocyclohexan-2-yl)carbonyl-2,3-dihydrobenzothiophene-1,1-dioxide]	1	2	–	–
CC1(C)CC(C)(C)C(=O)C(C(=O)c2ccc3c(c2Cl)CCS3(=O)=O)C1=O [A-15, 4-chloro-5-(4,4,6,6-tetramethyl-1,3-dioxocyclohexan-2-yl)carbonyl-2,3-dihydrobenzothiophene-1,1-dioxide]	1	3	–	–
CC1CC(O)=C(C(=O)c2ccc3c(c2Cl)CCS3(=O)=O)C(=O)C1C (centres unmarked) [A-16, 4-chloro-5-(4,5-dimethyl-1,3-dioxocyclohexan-2-yl)carbonyl-2,3-dihydrobenzothiophene-1,1-dioxide]	1	3	–	–
CC1Cc2c(ccc(C(=O)C3=C(O)CCCC3=O)c2Cl)S1(=O)=O (centres unmarked) [A-17, 4-chloro-2-methyl-5-(1,3-dioxocyclohexan-2-yl)carbonyl-2,3-dihydrobenzothiophene-1,1-dioxide]	0	1	–	–

SMILES	Chemical injury, Transplanted paddy rice plant [1]	Chemical injury, Transplanted paddy rice plant [2]	Chemical injury, Transplanted paddy rice plant (dose 100 g/ha)	Chemical injury, Transplanted paddy rice plant (dose 200 g/ha)
COc1c(C(=O)C2=C(O)CCCC2=O)ccc2c1CC(C)S2(=O)=O (centres unmarked) [A-18, 4-methoxy-2-methyl-5-(1,3-dioxocyclohexan-2-yl)carbonyl-2,3-dihydrobenzothiophene-1,1-dioxide]	0	1	–	–
O=C1CCCC([O-])=C1C(=O)c1ccc2c(c1Cl)CCS2(=O)=O.[Na+] [A-19, Sodium Salt of 4-chloro-5-(1,3-dioxocyclohexan-2-yl)carbonyl-2,3-dihydrobenzothiophene-1,1-dioxide]	0	1	–	–
O=C1CCCC(=O)C1C(=O)c1ccc2c(c1Br)CCS2(=O)=O [A-20, 4-bromo-5-(1,3-dioxocyclohexan-2-yl)carbonyl-2,3-dihydrobenzothiophene-1,1-dioxide]	0	0	–	–
N#Cc1c(C(=O)C2C(=O)CCCC2=O)ccc2c1CCS2(=O)=O [A-21, 4-cyano-5-(1,3-dioxocyclohexan-2-yl)carbonyl-2,3-dihydrobenzothiophene-1,1-dioxide]	0	0	–	–
O=C1CCCC(Cl)=C1C(=O)c1ccc2c(c1Cl)CCS2(=O)=O [B-1]	–	–	0	0
CCSC1=C(C(=O)c2ccc3c(c2Cl)CCS3(=O)=O)C(=O)CCC1 [B-2]	–	–	0	0
O=C1CCCC(Sc2ccccc2)=C1C(=O)c1ccc2c(c1Cl)CCS2(=O)=O [B-3]	–	–	0	0
Cc1cc(C(=O)C2=C(Cl)CCCC2=O)c(Cl)c2c1S(=O)(=O)CC2 [B-4]	–	–	1	2
Cc1cc(C(=O)C2=C(Sc3ccccc3)CCCC2=O)c(Cl)c2c1S(=O)(=O)CC2 [B-5]	–	–	0	0
O=C1CCCC(Br)=C1C(=O)c1ccc2c(c1Cl)CCS2(=O)=O [B-6]	–	–	0	0
CSC1=C(C(=O)c2ccc3c(c2Cl)CCS3(=O)=O)C(=O)CCC1 [B-7]	–	–	0	0
CCCSC1=C(C(=O)c2ccc3c(c2Cl)CCS3(=O)=O)C(=O)CCC1 [B-8, 4-chloro-5-[3-(3-propyl)thio-1-oxocyclohexan-2-yl]carbonyl-2,3-dihydrobenzothiophene-1,1-dioxide]	–	–	0	0
CC(C)SC1=C(C(=O)c2ccc3c(c2Cl)CCS3(=O)=O)C(=O)CCC1 [B-9]	–	–	0	0
CCCCSC1=C(C(=O)c2ccc3c(c2Cl)CCS3(=O)=O)C(=O)CCC1 [B-10]	–	–	0	0
O=C1CCCC(SCc2ccccc2)=C1C(=O)c1ccc2c(c1Cl)CCS2(=O)=O [B-11]	–	–	0	0
CON(C)C1=C(C(=O)c2ccc3c(c2Cl)CCS3(=O)=O)C(=O)CCC1 [B-12, 4-chloro-5-[3-(N-methoxymethyl)amino-1-oxocyclohexan-2-yl]carbonyl-2,3-dihydrobenzothiophene-1,1-dioxide]	–	–	0	1
CN(C)C1=C(C(=O)c2ccc3c(c2Cl)CCS3(=O)=O)C(=O)CCC1 [B-13]	–	–	0	0

Reference: US20040002425A1, “Triketone derivatives and herbicides” (Idemitsu Kosan Co., Ltd., priority 1998, published 2004)
